Data taken from a melting point compilation (Tetko et al.; mined from patent text by program, amines drawn as free bases though some values may be those of a salt).

| Compound | melting point [°C] |
| --- | --- |
| CCc1nccn1CC1CC2c3cccc4[nH]cc(c34)CC2N(C)C1 (configuration not stated) | 232 to 237 |
| CC(C)(C)C1=NC=C2C=CC(=O)NC3=C2N1CC3 | 246 to 248 |
| CS(=O)(=O)c1ccccc1C(=O)Cl | 135 to 137 |
| COc1cc(OC)nc(NC(=O)NS(=O)(=O)Oc2ccccc2C(=O)OCCCl)n1 | 148 to 150 |
| CC(C)C(C(=O)O)N(C)C(=O)OC(C)(C)C (configuration not stated) | 83 to 85 |
| CN(C(=O)NCC(=O)O)[C@H]1O[C@H](c2ccccc2Cl)c2cc(Cl)ccc2N(Cc2ccccc2)C1=O (relative stereo) | 153 to 155 |
| CC1=C(C#N)C(c2cccc([N+](=O)[O-])c2)n2ccnc2N1 (configuration not stated) | 278 to 280 |
| O=C(N=CNO)c1nccc2c1[nH]c1ccccc12 | 235 to 240 |
| COc1ccc2c(c1)CCNC2=O | 128 to 130 |
| COc1ncc(OC)c(Cl)n1 | 78 to 80 |
| COc1cc2c(O)c3c(c(-c4ccc5c(c4)OCO5)c2cc1OC)C(=O)OC3 | 280 to 282 |
| COc1ccc2nc3ccc(OC)cc3c(C(=O)Oc3c(Br)cccc3Br)c2c1 | 245 to 247 |
| COc1ccc(-c2cc(=O)n(Cc3cc(OC)c(OC)c(OC)c3)nc2-c2ccc(OC)cc2)cc1 | 138 to 139 |
| Fc1ccc2[nH]c3c(c2c1)CN(CCc1ccccn1)CC3 | 199 to 201 |
| CCOC(=O)c1c(CC)[nH]c(CC)c1C | 101 to 103 |
| O=CNc1nc(OCOC(=O)C2CCCC2)ncc1F | 76 to 79 |
| CC(=O)NC(NC(=O)Nc1ccccc1)C(=O)NCc1ccccc1 (configuration not stated) | 242 |
| COC(=O)C(=O)c1ccc(OCCOc2ccc3ccccc3c2)c([N+](=O)[O-])c1 | 127 to 129 |
| COc1cc2c(cc1OC)C(C=Cc1ccccc1)=NN(C(C)=O)C(C)C2 (configuration not stated) | 118 to 120 |
| CC(C)COc1nc(N)c2ncn(C3CCCCC3)c2n1 | 123 to 134 |
| COc1cc(C(=O)O)ccc1Cn1ccc2ccc(NC(=O)OC3CCCC3)cc21 | 237 to 238 |
| C=C(c1ccc(C(=O)OC)cc1)c1ccc2c(c1)C(C)(C)CCC2(C)C | 117 to 118 |
| O=Cc1cc2cc(OCc3ccccc3)c(F)cc2nc1I | 210 |
| COc1ccc([C@@H]2Sc3ccccc3N(CCN(C)C)C(=O)[C@@H]2OC(=O)c2cc(Cl)ccc2[N+](=O)[O-])cc1 | 159 to 160 |
| CN(C)Cc1ccc(-c2ccc(S(=O)(=O)n3ccc(C=CC(=O)NO)c3)cc2)cc1 | 216 to 217 |

| Compound | melting point [°C] |
| --- | --- |
| Cc1cccc(C(=O)c2ccc(F)cc2)n1 | 53 to 54 |
| Cc1cc2ncc(-c3nnnn3C)c(O)c2cc1C | 301 to 303 |
| CC(C)C(=O)OCC(COC(=O)C(C)C)OCn1cnc2c(=O)[nH]c(N)nc21 | 193 to 198 |
| CCOC(=O)c1cc2cccc(N(CC)S(=O)(=O)c3cccs3)c2[nH]1 | 124 to 125 |
| Cc1cccc(C(=O)c2[nH]c3cc(Cl)ccc3c2N)n1 | 210 to 211 |
| CCCCCCCCCCCCCCCCCCC1(CO)OC(n2cccnc2=O)C(O)C1O (configuration not stated) | 159 |
| O=S(=O)(Cc1ccccc1)c1ncc(Cl)cn1 | 122 to 124 |
| COc1ccc(Sc2nccn2C)c([N+](=O)[O-])c1 | 117 to 120 |
| CCCCn1c(CC)ccc1C(=O)c1cccc(N)c1 | 71 to 77 |
| COC=C(Br)c1c(C(F)(F)F)nc(C(F)F)c(C(=O)OC)c1CC1CC1 | 79 to 79.5 |
| CC(C)(C)OC(=O)n1cccc1-c1ccc(C[C@H](NC(=O)c2c(Cl)cccc2Cl)C(=O)O)cc1 | 98 to 99 |
| O=S(=O)(Nc1ccc(Cl)nc1I)c1ccc2ncccc2c1 | > 250 |
| Nc1nc2c(s1)C(=O)c1ccccc1C2=O | > 260 |
| NC(=NCC(F)(F)F)Nc1ccnc(SCCCNC=O)n1 | 165 to 166 |
| COc1cc(C=CN(C)C)c([N+](=O)[O-])cc1OC | 125 to 126 |
| COCCOc1ccc(/C=C/C(=O)O)c(Oc2ncc(Br)s2)c1 | 144 to 145 |
| CC(=O)[C@@H]1C/C=C(/C)C/C=C/[C@H](C)[C@H](O[Si](C)(C)C(C)(C)C)[C@@H](C)C(=O)C(C)(C)[C@@H](O[Si](C)(C)C(C)(C)C)CC(=O)O1 | 85 |
| CCc1cnc(N2CCN(C(=O)c3ccc(CNc4ncnc5ccccc45)cc3)CC2)nc1 | 170 to 171 |
| O=C(COc1ccccc1)Nc1ccc(CN2C(=O)[C@H]3CCC[C@H]3N(C(=O)CN3C(=O)c4ccccc4C3=O)c3ccccc32)cc1 (relative stereo) | 134 to 137 |
| NNC(=C[N+](=O)[O-])NCc1ccc(Cl)nc1 | 188 to 190 |
| CCc1nc2ccc(S(C)(=O)=O)nn2c1S(N)(=O)=O | 225 to 226 |
| CCCCOc1ccc(-c2nc(-c3ccc(Sc4ccccc4)cc3)nc(-c3ccc(OCCCC)cc3O)n2)c(O)c1 | > 250 |
| c1ccc(-c2cnc(NC3CCC(CCN4CCN(c5ccccc5)CC4)CC3)nc2)cc1 (configuration not stated) | 170 |
| CCn1cc(C(=O)O)c(=O)c2cc(F)c(N3CCC(NS(=O)(=O)c4ccc(N)cc4)C3)c(F)c21 (configuration not stated) | 214 to 216 |
| COc1ccc(CC(=O)c2ccc(F)cc2)cc1 | 107 to 109 |

| Compound | melting point [°C] |
| --- | --- |
| O=S(=O)(NCCCN1CCC(Oc2ccc(Cl)c(Cl)c2)CC1)c1ccc(-c2ccccn2)s1 | 115 |
| COc1cc(NC(=O)CC#N)cc(OC)c1OC | 146 to 147 |
| CCCCOc1c(NC(CC)CC)c(=O)c1=O | 65 to 66 |
| CON(C)C(=O)c1cc(Br)ccc1N | 80 to 81 |
| CCOc1ccc(-c2csc(-c3cccc(C(=O)OC)c3)n2)cc1 | 192 to 193 |
| CCCCc1nn(-c2cc([N+](=O)[O-])ccc2Cl)c(=O)n1Cc1ccc(-c2ccccc2S(N)(=O)=O)cc1 | > 90 |
| C[C@@H](n1ccn(-c2ccc(O)cc2)c1=O)[C@](O)(Cn1cncn1)c1ccc(F)cc1F | 93 to 103 |
| O=C(NOC(=O)Oc1ccccc1)Oc1ccccc1 | 80 to 82 |
| COC1(c2ccc(C)cc2)CCC(=NO)CC1 (configuration not stated) | 114 to 116 |
| CC(C)(CCc1noc(=O)[nH]1)c1ccc(C(=O)Nc2cn3cc(-n4ccnc4)ccc3n2)cc1 | 283 to 284 |
| CC(C)CC(NC(=O)c1ccc(CBr)cc1)C(=O)NC(C)(C)C#N (configuration not stated) | 185 to 187 |
| O=[N+]([O-])c1cccc(C#Cc2c(F)c(F)nc(F)c2F)c1 | 130 to 131 |
| Cc1cccc(Nc2nc(N)ncc2S(N)(=O)=O)c1 | 213 to 215 |
| CSc1ccc(-c2nn(Cc3ccc(Cl)cc3Cl)c(=S)cc2-c2ccc(Cl)cc2)cc1 | 183 |
| O=S(=O)(Nc1ccccc1OC(c1ccncc1)C1CCNCC1)c1ccc2cc(Br)ccc2c1 (configuration not stated) | 197 to 200 |
| COC(=O)C1Oc2ccc(F)cc2C(C)(c2ccccc2)O1 (configuration not stated) | 95 |
| Cc1c(Cl)ccc(S(=O)(=O)N(CCc2ccccc2)CC(=O)NCC(=O)O)c1Cl | 110 |
| O=C(O)c1ccc(OCCCCCCc2ccc3cc(OCc4ccccc4)c(OCc4ccccc4)cc3c2)cc1 | 153 to 155 |
| CCCCCCCCCCCCOc1ccc(CP(=O)(OC)OC)cc1 | 30 to 31 |
| COc1cc2cn(-c3c(C)c(C)c4c(c3C)C(c3ccc(C)cc3)C(C)(C)O4)cc2cc1OC (configuration not stated) | 146 to 147 |
| COc1ccc(C2=NN(c3ccc(Br)cc3)C(=O)C(C)(C)C2)cc1OC | 123 to 124 |
| CCOC(=O)NC1Cc2ccccc2C1Sc1ccccc1 (configuration not stated) | 60.5 to 62 |
| Nc1ccccc1-c1[nH]ncc1[N+](=O)[O-] | 175 to 176 |
| CC(=O)Nc1nc(Cl)c2ncn([C@@H]3C[C@H](OC(C)=O)[C@@H](O)[C@H]3O)c2n1 (racemic) | 198 |
| Cc1nc2c(-c3cccc(C(F)(F)F)c3)cncn2n1 | 114 to 116 |

| Compound | melting point [°C] |
| --- | --- |
| CCN(CC)CCCNc1nnc(COC)c2c1cc1n2CCCC1 | 145 to 147 |
| COCc1c(C(=O)OC(C)C)ncc2[nH]c3cccc(Oc4ccc([N+](=O)[O-])cc4)c3c12 | 217 to 219 |
| O=C1CC(=O)C(C2CCCSC2)CO1 (configuration not stated) | 91 to 93 |
| Cc1nc(N2CCc3ccccc3CC2)c(C#N)c(=O)n1NCC(F)(F)F | 144 to 146 |
| Cc1cc(N)nc(CCc2nc3cc(-c4ccccc4)cnc3[nH]2)c1 | 230 |
| Cc1ccc(C(F)(F)F)cc1-c1ccc(S(=O)(=O)N2c3ccccc3CC2C(=O)NCCOc2ccc(CC(=O)O)cc2)cc1 (configuration not stated) | 80 to 84 |
| N#Cc1c2ccccc2c(-c2ccc(O)cc2)c2c1sc1ccccc12 | 307 to 309 |
| CS(=O)(=O)c1ccc(-c2cnn(-c3cc(F)cc(F)c3)c(=O)c2Oc2ccc(F)cc2)cc1 | 209 to 211 |
| CC1=C(CC(NC(=O)c2ccc(Cl)cc2)NC(=NC#N)Nc2cccnc2)C(C)(C)CCC1 (configuration not stated) | 95 to 96 |
| O=C(c1ccc(Cl)cc1)C(Br)CCCl (configuration not stated) | 73 |
| Cc1oc(=O)oc1CN1CCN(c2cc3c(cc2F)c(=O)c(C(=O)O)c2n3C(c3ccccc3)S2)CC1 (configuration not stated) | 201 to 202 |
| O=C(Cc1ccccn1)c1ccc2ncccc2c1 | 104 |
| FC(F)(F)c1ccc2c(c1)C(Cl)Cc1c(Cl)cccc1S2 (configuration not stated) | 88 to 90 |
| CCOC(=O)C(=CNc1scc(C)c1C(=O)OC)C(=O)OCC | 106 |
| CC(=O)SCC(Cc1ccccc1)C(=O)Nc1c(Cl)cccc1C(=O)O (configuration not stated) | 123 to 127 |
| CCOCc1nc2c(N)nc3ccccc3c2n1CC1CC(c2ccccc2)=NO1 (configuration not stated) | 235 to 237 |
| O=c1nc(-c2cccc(CN3CCC(c4ccccc4)CC3)n2)sc2ccccc12 | 207 to 208 |
| O=C(Nc1c(C(F)(F)F)n[nH]c1-c1ccccc1)c1ccccc1 | 229 to 230 |
| COC(=O)COc1cc(Cl)c(C(=O)CBr)cc1Cl | 89 to 90 |
| Cc1ccc(N2C(=O)NC(NCC(C)C)NC2=O)cc1 | 297 to 301 |
| COCCOc1cc2ncnc(C3C(=O)N(C=O)c4ccccc43)c2cc1OC (configuration not stated) | 228 to 230 |
| O=C(NC1(C2CC2)CC1)c1c(NC(=O)c2cc(C(F)(F)F)nn2-c2ncccc2Cl)c(Br)cc2cn[nH]c12 | 212 to 214 |
